# Test results reported in patent US7547712B2 (priority 2006, dated 2009).
# System: New Zealand White rabbits
# Conditions: rabbit, in vivo, sc
# Experimental: 100 female New Zealand White rabbits were tested according to the study design detailed below (Table 2). The vehicle/adjuvant and test article were administered via intramuscular injection. […] The pumps were surgically implanted subcutaneously. The dose volume of the test article and vehicle was 0.5 ml/kg. The dose rate of the pumps was approximately 5 μl/hr.
# The test article and vehicle/adjuvant formulations were administered to the study animals once at 30 days prior to gestation, once at 9 days prior to gestation, and once on day 12 of gestation.
smiles,measurement,setting,value
CN1CCCC1c1cccnc1 (stereo not drawn) [Nicotine],Mortality,"female, New Zealand White",3
same,Number of Does: Abortion,female,5
same,Number of Does: Found dead/euthanized in extremis,female,2
same,Number of Does: No. Delivered,female,11
same,Number of Does: No. Survived Day 28,female,6
same,Number of Does: No. whole litters dead,female,4
same,Number of Does: Not Pregnant,female,2
same,Number of Kits (Mean) LD 0-7,female,47.8
same,Number of Kits (Mean) LD 7-14,female,100.0
same,Number of Kits (Mean) LD 14-21,female,100.0
same,Number of Kits (Mean) LD 21-28,female,100.0
same,"mean lactation index, representing kit survival from lactation day 0-7",female,47.8%
same,mean number of kits born,female,6.8 kits/liter
same,gestation food consumption,,significantly decreased
same,maternal body weight,,decrease in maternal body weight
